Values joined by “and” are separate entries in the source; they are usually repeats but may differ in a detail not shown here. Equal values may be shown once. “Also recorded” adds a separate entry of the source.
Tests used:
[1] = test system: circulating white blood cells and neutrophils; conditions: patients whose bone marrow function has been depressed by chemotherapy; cited from earlier work
[2] = test system: HIV patients; test: Second clinical study of HIV+ patients: symptoms and side effects (incl. case studies); assay type: in vivo, human
Description: (§1) Nine of the patients in Example III were given a second treatment of TPA. Of these nine, seven were asymptomatic at the beginning of the second trial. A tenth patient (patient #2a) who was symptomatic and had not previously been treated with TPA was added to the study. Each patient was administered a weight adjusted dosage of TPA (75 μg/sq m) in 200 ml of sterile saline intravenously over one hour. This dosage was given to each patient once a day for ten consecutive days followed by a rest period of ten days for three cycles and a total of 30 doses of TPA. Patients 5a, 6a, and 8a stopped taking anti-AIDS drugs one month prior to beginning the TPA treatment and beginning again one month after the third cycle. Patients 1-4-a, 7a, and 9a-10a continued taking anti-AIDS drugs throughout the treatment.
(§2) Results of treatment of initially symptomatic AIDS patients treated with TPA according to the protocols of Example III, IV, and V. Patients who participated in multiple studies are in some cases identified by more than one patient number. All patient identification numbers correspond to the patient numbers in Tables 1-7.

[3] = test system: HIV patients; test: Third clinical study of HIV+ patients: symptoms and side effects (incl. case studies); assay type: in vivo, human
Description: Six patients, two males and four females between the ages of 37 and 52 years of age (Patients #13-18), were treated with TPA. Four of these patients previously received TPA treatment in combination with anti-HIV drugs in the two previous clinical studies. The two remaining patients had never been treated with TPA, but had previously received anti-HIV drug regimens. All treatments were stopped three days prior to the initiation of the third clinical study and were not resumed until 60 days after completion of the TPA treatment. The resumption of the standard HIV treatments was required by local health authorities.
Each patient in the study received 150 μg of TPA in 200 ml of sterile saline by intravenous infusion over a 1.5 to 2 hour period daily for 60 days for a total administered dose of 9.0 mg. Following completion of the 60 days of TPA therapy, these patients remained under observation for an additional 60 days though the received no further treatment.
as §2

[4] = test system: CD3, CD4, CD8; test: Second clinical study of HIV+ patients: CD3, CD4, CD8; assay type: in vivo, human; design: CD4 / CD8 / CD3: unit not given here; conditions: for CD4 / CD3 / CD8: one value per patient
Description: as §1
(§3) Blood samples were taken three days prior to starting treatment, after completing the first 10 day cycle of TPA infusion and again after the last TPA infusion and CD3, CD4, CD8, WBC, RBC, HGB and platelets were measured.

[5] = Dose ranging study: toxicity and side effects of TPA doses given clinically by i.v. infusion; assay type: in vivo, human
Description: Due to the strong local irritation caused by TPA application, TPA was given to patients by intravenous (i.v.) infusion. TPA solution in a sterile syringe was injected into 200 ml of sterile saline and mixed well for i.v. infusion.
One mg TPA in solution was mixed well with 200 ml of sterile saline for intravenous infusion which was completed in 1 h at the rate of 16 μg/min. […] The above symptoms could be alleviated by giving the patients glucocorticoids. […] However, these side effects were short lived and reversible. The cardiac, hepatic, renal and pulmonary functions were all found to be normal.
0.5 mg of TPA in solution was mixed well with 200 ml of saline for intravenous infusion which was completed in 1 h at the rate of 8 μg/min. […] The patients tolerated the lower dose more easily. […] Difficulty in breathing was not observed. The cardiac, hepatic, renal and pulmonary functions were all normal.
0.25 mg of TPA in solution was mixed well with 200 ml of saline for intravenous infusion which was completed in 1 h at the rate of 4 μg/min. […] The cardiac, hepatic, renal and pulmonary functions were all normal.

[6] = Second clinical study of HIV+ patients: periphery blood count; assay type: in vivo, human; conditions: one value per patient
Description: as §1, §3

[7] = test system: CD3, CD4 and CD8 in peripheral blood; test: First clinical study of HIV+ patients: CD3, CD4, CD8 levels by flow cytometry; assay type: in vivo, human; design: CD4 / CD8 / CD3: unit not given here; conditions: for CD3 / CD4 / CD8: one value per patient
Description: Twelve symptomatic patients (five males and seven females) between the ages of 35 to 52 all of whom were infected with HIV in 1995 through blood transfusion and were refractory to standard treatments for HIV were treated with TPA. Each patient was administered a weight adjusted dosage of TPA (75 μg/sq m) in 200 ml of sterile saline by i.v. over one hour. This dose was administered once daily for the first three days of treatment. Each patient was then given this dose every other day for days 4 to 18 followed by a six month rest period prior to a second course of treatment according to the same protocol.
[…] Levels of CD3, CD4 and CD8 in peripheral blood were measured using monoclonal antibodies (Becton Dickson Scientific Co., Franklin Lakes, N.J.) and a flow cytometer (B.D. Bioscience, San Diego, Calif.).

[8] = protocol of Example IV, individual patients
[9] = After first 10-day TPA infusion cycle
[10] = After third 10-day TPA infusion cycle
[11] = After first 10-day TPA infusing
[12] = After third 10-day TPA infusing
[13] = Four days after TPA, 75 μg/sq m i.v.

CCCCCCCCCCCCCC(=O)O[C@@H]1[C@@H](C)[C@@]2(O)[C@@H](C=C(CO)C[C@]3(O)C(=O)C(C)=C[C@@H]23)[C@@H]2C(C)(C)[C@]12OC(C)=O [TPA, 12-O-tetradecanoylphorbol-13-acetate]
circulating white blood cells and neutrophils [1]: increase in circulating white blood cells and neutrophils
AIDS symptoms in the symptomatic patients (#9a, #2a) ([2]; after three cycles of TPA): experienced a disappearance of AIDS symptoms
AIDS symptoms in the other eight patients ([2]; began the study without AIDS symptoms): symptom free at the end of the study
adverse effects during TPA treatment (individual patient) ([2]; protocol of Example IV): no adverse effects; also recorded: no side effects
symptoms after treatment with TPA (individual patient) ([2]; protocol of Example IV): continues to have no symptoms of AIDS; also recorded: the fever and diarrhea were no longer a problem; also recorded: does not have any symptoms of AIDS; also recorded: has not had any symptoms of AIDS; also recorded: Her mental and physical condition has improved considerably
duration of the increase in body temperature [2, 8]: two
increase in body temperature during TPA treatment [2, 8]: 38.5 degrees centigrade
recurrence of AIDS symptoms ([3]; 120 day observation and treatment period): no recurrence of AIDS symptoms
side effects of TPA treatment (individual patient) ([3]; protocol of Example V): local irritation due to a leaking needle; also recorded: a fever on one occasion; also recorded: skin irritation from a leaking needle; also recorded: no side effects
AIDS symptoms during and after treatment (individual patient) ([3]; protocol of Example V, antiviral therapy stopped): No AIDS symptoms returned; also recorded: remains symptom free; also recorded: No AIDS symptoms occurred
fever during TPA infusion ([3]; protocol of Example V, individual patients): 38-38.5 °C and 38-39 °C
CD4 ([4]; After first 10-day TPA infusion cycle, 75 μg/sq m i.v. daily): 76 and 460 and 189 and 91 and 285 and 729 and 519 and 136 and 74 and 7
CD3 [4, 9]: 476 and 1200 and 823 and 1598 and 758 and 3148 and 1143 and 712 and 333 and 1323
CD8 [4, 9]: 335 and 729 and 584 and 1507 and 429 and >2000 and 547 and 574 and 261 and 907
CD3 [4, 10]: 625 and 2033 and 1193 and 1257 and 938 and 3347 and 1295 and 1317 and 308 and 2037
CD4 [4, 10]: 137 and 1002 and 205 and 94 and 276 and 786 and 495 and 100 and 63 and 19
CD8 [4, 10]: 543 and 980 and 916 and 1127 and 466 and >2000 and 733 and 1221 and 208 and 1129
CD3 (summary of Table 3) ([4]; after the first and third infusion with TPA): increase in CD3 in all patients
Hb in the urine ([5]; 0.25 mg/patient ×4/week): No Hb was detected in the urine
cardiac, hepatic, renal and pulmonary functions ([5]; 0.25 mg/patient ×4/week): normal
chills and fever ([5]; 0.25 mg/patient ×4/week): observed, but to a much lesser extent than with the higher dosages
difficulty in breathing ([5]; 0.25 mg/patient ×4/week): no patient suffered difficulty in breathing
Hb in the urine ([5]; 0.5 mg/patient ×2/week): Occasionally, Hb was detected in patients' urine
cardiac, hepatic, renal and pulmonary functions ([5]; 0.5 mg/patient ×2/week): normal
difficulty in breathing ([5]; 0.5 mg/patient ×2/week): not observed
Hb in the urine ([5]; 1 mg/patient/week): Hb was detected in the urine
bleeding ([5]; 1 mg/patient/week): caused a minority of patients to bleed
cardiac, hepatic, renal and pulmonary functions ([5]; 1 mg/patient/week): normal
difficulty in breathing ([5]; 1 mg/patient/week): several patients suffered for a short period of time difficulty in breathing
duration of fever ([5]; 1 mg/patient/week i.v. infusion): 3 to 5 h
patients' temperature (fever) ([5]; 1 mg/patient/week i.v. infusion in 1 h): 37.5-39.5 °C
duration of chills ([5]; 1 mg/patient/week i.v. infusion, start one hour after administration): about 30 min
HGB [6, 11]: 88 g/L and 1.38 g/L and 107 g/L and 1.35 g/L and 142 g/L and 143 g/L and 128 g/L and 57 g/L and 92 g/L and 99 g/L
PLt [6, 11]: 2.38e+11 L⁻¹ and 3.38e+11 L⁻¹ and 3.06e+11 L⁻¹ and 3.15e+11 L⁻¹ and 2.56e+11 L⁻¹ and 2.58e+11 L⁻¹ and 2.21e+11 L⁻¹ and 2.14e+11 L⁻¹ and 1.87e+11 L⁻¹ and 3.25e+11 L⁻¹
RBC [6, 11]: 2.14e+12 L⁻¹ and 3.83e+12 L⁻¹ and 2.92e+12 L⁻¹ and 3.46e+12 L⁻¹ and 3.48e+12 L⁻¹ and 3.76e+12 L⁻¹ and 3.86e+12 L⁻¹ and 1.99e+12 L⁻¹ and 2.58e+12 L⁻¹ and 2.61e+12 L⁻¹
WBC [6, 11]: 3.7e+09 L⁻¹ and 9.8e+09 L⁻¹ and 3.6e+09 L⁻¹ and 5.7e+09 L⁻¹ and 4.2e+09 L⁻¹ and 6e+09 L⁻¹ and 4.3e+09 L⁻¹ and 2.6e+09 L⁻¹ and 2.9e+09 L⁻¹ and 4.4e+09 L⁻¹
HGB [6, 12]: 102 g/L and 100 g/L and 140 g/L and 105 g/L and 144 g/L and 154 g/L and 123 g/L and 128 g/L and 67 g/L and 130 g/L
PLt [6, 12]: 182 ×10^9/L and 124 ×10^9/L and 549 ×10^9/L and 105 ×10^9/L and 130 ×10^9/L and 169 ×10^9/L and 293 ×10^9/L and 138 ×10^9/L (2×) and 170 ×10^9/L
RBC [6, 12]: 2.91e+12 L⁻¹ and 2.52e+12 L⁻¹ and 4.54e+12 L⁻¹ and 2.85e+12 L⁻¹ and 3.61e+12 L⁻¹ and 3.66e+12 L⁻¹ and 3.92e+12 L⁻¹ and 4.19e+12 L⁻¹ and 2.33e+12 L⁻¹ and 4.31e+12 L⁻¹
WBC [6, 12]: 6.1e+09 L⁻¹ and 1.11e+10 L⁻¹ and 1.36e+10 L⁻¹ and 9.2e+09 L⁻¹ and 1.01e+10 L⁻¹ and 6.5e+09 L⁻¹ and 6e+09 L⁻¹ and 6.8e+09 L⁻¹ and 4e+09 L⁻¹ and 7e+09 L⁻¹
CD3 ([7]; After TPA (patients 09-12)): 2920 and 1077 and 874 and 362
CD4 ([7]; After TPA (patients 09-12)): 663 and 445 and 131 and 78
CD8 ([7]; After TPA (patients 09-12)): <2000 and 591 and 724 and 268
CD3 ([7]; Forty two days after TPA): 799 and 424 and 581 and 1643 and 537 and 146 and 858 and 203
CD4 ([7]; Forty two days after TPA): 54 and 33 and 44 and 191 and 49 and 1 and 241 and 2
CD8 ([7]; Forty two days after TPA): 700 and 374 and 493 and 1429 and 429 and 139 and 527 and 111
CD3 [7, 13]: 427 and 941 and 1282 and 808 and 598 and 739 and 299 and 2616
CD4 [7, 13]: 36 and 123 and 119 and 179 and 7 and 318 and 3 and 105
CD8 [7, 13]: 366 and 770 and 1330 and 570 (2×) and 355 and 180 and <2000
change in CD3, CD4, or CD8 levels (summary of Table 1) ([7]; twelve patients): no consistent change or correlation was observed
